PubChem BioAssay (NCI)
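How tested: cells in 96-well plates exposed to compound for 48 hours at five concentrations. GI50 = concentration required for 50% inhibition of growth. TGI is the concentration that stops growth completely.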

Columns and labels:
Assay in all cases: DTP human tumour cell line panel, 48 h
A549 NSCLC = tested on: A549 NSCLC
DU-145 prostate = tested on: DU-145 prostate
HCT-116 colon = tested on: HCT-116 colon
HOP-62 NSCLC = tested on: HOP-62 NSCLC
OVCAR-3 ovarian = tested on: OVCAR-3 ovarian
SK-MEL-5 melanoma = tested on: SK-MEL-5 melanoma
SN12C renal = tested on: SN12C renal
SR leukemia = tested on: SR leukemia

| Structure (SMILES) | GI50 (A549 NSCLC) | TGI (A549 NSCLC) | GI50 (DU-145 prostate) | TGI (DU-145 prostate) | GI50 (HCT-116 colon) | TGI (HCT-116 colon) | GI50 (HOP-62 NSCLC) | TGI (HOP-62 NSCLC) | GI50 (OVCAR-3 ovarian) | TGI (OVCAR-3 ovarian) | GI50 (SK-MEL-5 melanoma) | TGI (SK-MEL-5 melanoma) | GI50 (SN12C renal) | TGI (SN12C renal) | GI50 (SR leukemia) | TGI (SR leukemia) |
| --- | --- | --- | --- | --- | --- | --- | --- | --- | --- | --- | --- | --- | --- | --- | --- | --- |
| O=C(/C=C/c1ccc(C(F)(F)F)cc1)Nc1ccc(C=C2c3ccccc3C(=O)c3ccccc32)cc1 | 6.14 µM | > 100 µM | 30.5 µM | > 100 µM | 4 µM | > 100 µM | 11.7 µM | 51.9 µM | 3.76 µM | 18 µM | 2.71 µM | 13.4 µM | 26.7 µM | > 100 µM | 0.772 µM | 41.7 µM |
| CCc1ccccc1NC(=O)/C=C/c1ccccc1 |  | > 100 µM |  | > 100 µM |  | > 100 µM |  | > 100 µM |  | > 100 µM |  | > 100 µM |  | > 100 µM |  | > 100 µM |
| O=C(/C=C/c1ccc(O)c(O)c1)NCc1c[nH]c2ccccc12 | > 100 µM | > 100 µM | 78.3 µM | > 100 µM | 62.2 µM | > 100 µM | 44.7 µM | > 100 µM | 28.4 µM | > 100 µM | 32.9 µM | > 100 µM | 28.4 µM | 84.7 µM | 10 µM | 37 µM |
| NS(=O)(=O)c1ccc(N2N=C3c4ccccc4CC3C2c2cccs2)cc1 (stereo not drawn) | 13.1 µM | 32.1 µM | 14.5 µM | 37.7 µM | 10.7 µM | 25 µM | 16.9 µM | 36.8 µM | 24.8 µM | 47.8 µM | 18 µM | 43.5 µM | 23.5 µM | 48.9 µM |  |  |
| O=c1cc(-c2ccc(O)cc2)oc2cc(O[C@@H]3O[C@H](CO)[C@@H](O)[C@H](O)[C@H]3O)cc(O)c12 |  | > 100 µM |  | > 100 µM |  | > 100 µM |  | > 100 µM |  | > 100 µM |  | > 100 µM |  | > 100 µM |  | > 100 µM |
| Cc1cc(Cl)ccc1OCC(=O)Nc1nc(N)nc(N)n1 |  | > 100 µM |  | > 100 µM |  | > 100 µM |  | > 100 µM |  | > 100 µM |  | > 100 µM |  | > 100 µM |  | > 100 µM |
| COC(=O)C(CCC(=O)CCl)N1C(=O)c2ccccc2C1=O (stereo not drawn) |  | 35.3 µM |  | 26.9 µM |  | 14.5 µM |  | 29 µM |  | 16.7 µM |  | 16.1 µM |  | 23.8 µM |  | 11.7 µM |
| O=c1c2cc(-c3ccccc3)sc2ncn1Cc1ccc(Cl)c(Cl)c1 | 18 µM | > 100 µM | 32.9 µM | > 100 µM | 15 µM | 41.1 µM | 10.3 µM | 24.7 µM | 15.8 µM | 36.2 µM | 34.2 µM | > 100 µM | 13.1 µM | 39.1 µM | 5.14 µM | 17.9 µM |
| CN1CCN(Cc2ccc(NC(=O)c3cncc(C#Cc4cnc(N)cc4C#N)c3)cc2C(F)(F)F)CC1 | 3.89 µM | 15.4 µM | 3.25 µM | 15.5 µM | 1.43 µM | 9.85 µM | 3.33 µM | 13.1 µM | 4.88 µM | 20.4 µM | 2.29 µM | 7.11 µM | 2.46 µM | 10.7 µM | 4.21 µM | > 100 µM |
| CN(C)CCNC(=O)c1ccc(-c2nc3ccc4[nH]ncc4c3c3c2C2CCC3C2)cc1 (stereo not drawn) | 1.65 µM | 12.8 µM | 0.965 µM | 6 µM | 0.432 µM | 9.13 µM | 1.29 µM | 5.7 µM | 1.71 µM | 5.9 µM | 1.49 µM | 4.57 µM | 1.82 µM | 6.88 µM | 0.254 µM | 2.65 µM |
| CCCCCN(CCCCC)CC(O)c1cc(Cl)ccc1OC (stereo not drawn) | 6.61 µM | 24.7 µM | 10.8 µM | 23.5 µM | 2.49 µM | 12.6 µM | 12 µM | 26.7 µM | 10.8 µM | 23.6 µM | 5.75 µM | 18.5 µM | 10.5 µM | 28.8 µM | 4.78 µM | 30.5 µM |
| CCN1CCN(Cc2ccc(NC(=O)Nc3nc4ccc(Oc5ccnc(C(=O)NC)c5)cc4s3)cc2C(F)(F)F)CC1 | 1.99 µM | 3.71 µM | 1.76 µM | 3.62 µM | 1.73 µM | 3.45 µM | 1.95 µM | 3.78 µM | 1.89 µM | 3.59 µM | 1.52 µM | 2.9 µM | 1.8 µM | 3.66 µM | 0.281 µM | 0.846 µM |
